Among the data in US7998989B2, “2-Imino-1,3-thiazoline-based compounds and T-type calcium channel inhibitors containing the same” (Korea Institute of Science and Technology, priority 2007, dated 2011) are melting point values, retold here.

Structures are written as SMILES.

As a reminder, the melting point is the temperature, or range, at which the solid turns liquid. The compound `CN1C(=NC2CCCCC2)SCC1CC(=O)NCc1ccccc1.Cl` (stereo not shown) showed a melting point of 206 to 206.5 °C. Consider `COc1ccc(NC(=O)CC2CSC(=NC3CCCC3)N2C)cc1.Cl` (stereo not shown), for which the melting point lay in the range of 210 to 211 °C. The value for `CN1C(=NC2CCCC2)SCC1CC(=O)Nc1ccc(CC#N)cc1.Cl` (stereo not shown) was 199.5 to 200 °C; that for `Cc1ccc(NC(=O)CC2CSC(=NC3CCCC3)N2C)c(Cl)c1.Cl` (stereo not shown) was 185 to 186.5 °C; that for `Cc1ccc(NC(=O)CC2CSC(=NC3CCCC3)N2C)c(F)c1.Cl` (stereo not shown) was 189 to 190 °C. Regarding `CN1C(=NC2CCCC2)SCC1CC(=O)Nc1ccc(F)cc1F.Cl` (stereo not shown), the melting point lay within 240 to 242.5 °C. In the case of `CN1C(=NC2CCCC2)SCC1CC(=O)Nc1ccccc1.Cl` (stereo not shown), the melting point was in the range of 231.5 to 233 °C. The value for `CCOc1ccc(NC(=O)CC2CSC(=NC3CC3)N2C)cc1.Cl` (stereo not shown) was 219 to 220 °C; that for `CN1C(=NC2CC2)SCC1CC(=O)Nc1ccc(F)cc1Cl.Cl` (stereo not shown) was 237 to 239 °C; that for `CN1C(=NC2CC2)SCC1CC(=O)Nc1ccc(CC#N)cc1.Cl` (stereo not shown) was 245 to 245.5 °C. The figure for `CN1C(=NC2CC2)SCC1CC(=O)Nc1ccc(Br)cc1.Cl` (stereo not shown) is 227 to 228.5 °C. The value for `Cc1ccc(NC(=O)CC2CSC(=NC3CC3)N2C)c(Cl)c1.Cl` (stereo not shown) was 212 to 212.5 °C; that for `CN1C(=NC2CC2)SCC1CC(=O)Nc1cc(Cl)cc(Cl)c1.Cl` (stereo not shown) was 260.5 to 261 °C. Take `Cc1ccc(NC(=O)CC2CSC(=NC3CC3)N2C)c(F)c1.Cl` (stereo not shown): the melting point was 199.5 to 200.5 °C. `CN1C(=NC2CC2)SCC1CC(=O)Nc1ccc(F)cc1F.Cl` (stereo not shown) registered a melting point of 245 to 246 °C.

For `CN1C(=NC2CC2)SCC1CC(=O)Nc1cc([N+](=O)[O-])ccc1F.Cl` (stereo not shown), the melting point was in the range of 237.5 to 238 °C. The value for `CN1C(=NC2CC2)SCC1CC(=O)Nc1ccc(Cl)cc1F.Cl` (stereo not shown) was 237 to 237.5 °C.

`CN1C(=NC2CC2)SCC1CC(=O)Nc1ccc(Cl)cc1.Cl` (stereo not shown) gave a melting point of 241.5 to 242.5 °C.

`CN1C(=NC2CC2)SCC1CC(=O)Nc1ccccc1.Cl` (stereo not shown) yielded a melting point of 240.5 to 241 °C. The figure for `CC(C)c1ccc(NC(=O)CC2CSC(=NC3CC3)N2C)cc1.Cl` (stereo not shown) is 238 to 238.5 °C; for `CN1C(=NC2CC2)SCC1CC(=O)NCc1ccc(F)cc1.Cl` (stereo not shown) it is 200.5 to 202.5 °C; for `CN1C(=NC2CC2)SCC1CC(=O)NCc1ccc(Cl)cc1.Cl` (stereo not shown) it is 225.5 to 227 °C. The figure for `COc1ccc(CNC(=O)CC2CSC(=NC3CC3)N2C)cc1.Cl` (stereo not shown) is 220.5 to 222 °C. Turning to `CN1C(=NC2CCCC2)SCC1CC(=O)NCc1ccc(F)cc1.Cl` (stereo not shown), the melting point fell in the range of 160.5 to 162 °C. The figure for `COc1ccc(CNC(=O)CC2CSC(=NC3CCCC3)N2C)cc1.Cl` (stereo not shown) is 172 to 173.5 °C; for `CN1C(=NCC2CCCCC2)SCC1CC(=O)Nc1ccc(Oc2ccccc2)cc1.Cl` (stereo not shown) it is 250.8 °C. The value for `CCN1C(=NC2CCCCC2)SCC1CC(=O)Nc1ccc(Cl)cc1.Cl` (stereo not shown) was 218.3 °C; that for `CCCN1C(=NC2CCCCC2)SCC1CC(=O)Nc1cc(C(F)(F)F)cc(C(F)(F)F)c1.Cl` (stereo not shown) was 243.4 °C; that for `Cl.O=C(CC1CSC(=NC2CCCCC2)N1Cc1ccccc1)Nc1cc(C(F)(F)F)cc(C(F)(F)F)c1` (stereo not shown) was 234.6 °C. Turning to `Cl.O=C(CC1CSC(=NC2CCCCC2)N1Cc1ccccc1)Nc1ccc(Oc2ccccc2)cc1` (stereo not shown), the melting point was 209.5 °C. Turning to `Cl.O=C(CC1CSC(=NC2CCCCC2)N1Cc1ccccc1)Nc1cc([N+](=O)[O-])ccc1F` (stereo not shown), the melting point stood at 166.4 °C.

Compound `CC(C)c1ccc(NC(=O)CC2CSC(=NC3CCCCC3)N2C2CCCCC2)cc1.Cl` (stereo not shown) yielded a melting point of 199.7 °C. `Cl.O=C(CC1CSC(=NC2CCCCC2)N1C1CCCCC1)Nc1ccc(F)cc1` (stereo not shown) gave a melting point of 256 °C. `Cc1ccc(NC(=O)CC2CSC(=NC3CCCCC3)N2C2CCCCC2)cc1Cl.Cl` (stereo not shown) showed a melting point of 173 °C. The value for `Cl.O=C(CC1CSC(=NC2CCCCC2)N1C1CCCCC1)Nc1cc(Cl)ccc1F` (stereo not shown) was 158 °C; that for `Cl.O=C(CC1CSC(=NC2CCCCC2)N1C1CCCCC1)NCc1ccc(Cl)cc1` (stereo not shown) was 152 °C; that for `CC(C)(C)c1ccc(NC(=O)CC2CSC(=NC3CCCCC3)N2C2CCCCC2)cc1.Cl` (stereo not shown) was 244 °C. Regarding `Cl.O=C(CC1CSC(=NC2CCCCC2)N1C1CCCCC1)Nc1cc(Cl)cc(Cl)c1` (stereo not shown), the melting point was 202 °C.

For `CN1C(=NC2CCCCCC2)SCC1C(=O)Nc1ccccc1.Cl` (stereo not shown), the melting point was 211.4 °C. The figure for `CC1SC(=NC2CCCCC2)N(C)C1CC(=O)Nc1ccc(C(C)(C)C)cc1.Cl` (stereo not shown) is 255 to 257 °C; for `CC1SC(=NC2CCCC2)N(C)C1CC(=O)Nc1ccccc1.Cl` (stereo not shown) it is 186 to 188 °C; for `Cc1ccc(NC(=O)CC2C(C)SC(=NC3CCCC3)N2C)cc1.Cl` (stereo not shown) it is 228 to 229 °C.

Consider `CC1SC(=NC2CCCCC2)N(C)C1CC(=O)Nc1ccc([N+](=O)[O-])cc1.Cl` (stereo not shown), for which the melting point lay within 215 to 217 °C.

`CC1SC(=NC2CCCC2)N(C)C1CC(=O)Nc1ccccc1F.Cl` (stereo not shown) came in with a melting point of 153 °C. The figure for `Br.CN1C(=NC2CCCCCC2)SCC1C(=O)Nc1cc([N+](=O)[O-])ccc1F` (stereo not shown) is 264.8 °C.

In the case of `CN1C(=NC2CCCCCC2)SCC1C(=O)Nc1ccc(F)cc1.Cl` (stereo not shown), the melting point came to 265.3 °C. With `Br.CCc1ccc(NC(=O)C2CSC(=NC3CCCCCC3)N2C)cc1` (stereo not shown), the melting point lay within 278 to 279 °C. As for `Br.Cc1ccc(NC(=O)C2CSC(=NC3CCCCCC3)N2C)cc1` (stereo not shown), the melting point amounted to 278.9 °C. On to `Br.CN1C(=NC2CCCCCC2)SCC1C(=O)Nc1cc(Cl)cc(Cl)c1` (stereo not shown), for which the melting point was found to be 275.2 °C. The figure for `Br.CCCCc1ccc(NC(=O)C2CSC(=NC3CCCCCC3)N2C)cc1` (stereo not shown) is 240.8 °C; for `Br.CC(C)c1ccc(NC(=O)C2CSC(=NC3CCCCCC3)N2C)cc1` (stereo not shown) it is 282.2 °C; for `Br.CN1C(=NC2CCCCCC2)SCC1C(=O)Nc1ccc(Oc2ccccc2)cc1` (stereo not shown) it is 149.5 °C. The figure for `Br.CN1C(=NC2CCCCCC2)SCC1C(=O)Nc1ccc(C(C)(C)C)cc1` (stereo not shown) is 169.9 °C; for `Br.CN1C(=NC2CCCCCC2)SCC1C(=O)Nc1cc(Cl)ccc1F` (stereo not shown) it is 262.2 °C; for `Br.CN1C(=NC2CCCCCC2)SCC1C(=O)Nc1cc(C(F)(F)F)cc(C(F)(F)F)c1` (stereo not shown) it is 274.1 °C.

As to `CCCCN1C(=NC23CC4CC(CC(C4)C2)C3)SCC1CC(=O)Nc1cc(Cl)cc(Cl)c1.Cl` (stereo not shown), the melting point amounted to 164 °C. Consider `CCCCN1C(=NC23CC4CC(CC(C4)C2)C3)SCC1CC(=O)Nc1cc(CF)cc(CF)c1.Cl` (stereo not shown), for which the melting point was determined as 252 °C.

On to `CCCCN1C(=NC23CC4CC(CC(C4)C2)C3)SCC1CC(=O)Nc1ccc(Oc2ccccc2)cc1.Cl` (stereo not shown), for which the melting point was 127 °C. For the compound `CCCCc1ccc(NC(=O)CC2CSC(=NC34CC5CC(CC(C5)C3)C4)N2C(C)C)cc1.Cl` (stereo not shown), the melting point worked out at 178 °C.

Consider `CCCCc1ccc(NC(=O)CC2CSC(=NC3C4CC5CC(C4)CC3C5)N2C)cc1.Cl` (stereo not shown), for which the melting point stood at 127 °C. In turn, `CC(C)c1ccc(NC(=O)CC2CSC(=NC3C4CC5CC(C4)CC3C5)N2C)cc1.Cl` (stereo not shown) gave a melting point of 245 °C.
